Test results published in ChEMBL document CHEMBL2311398 (J Med Chem, 2013).

What was measured:
Motilin receptor [1] = target: T1, Motilin receptor (Homo sapiens, UniProt O43193); assay: Antagonist activity at MLNR (unknown origin)
Motilin receptor [2] = target: T1, Motilin receptor; assay: Agonist activity at MLNR (unknown origin)
[3] = target: Growth hormone secretagogue receptor type 1 (Homo sapiens, UniProt Q92847); assay: Agonist activity at GHSR (unknown origin)
Sequence of Growth hormone secretagogue receptor type 1 (Q92847 whole entry): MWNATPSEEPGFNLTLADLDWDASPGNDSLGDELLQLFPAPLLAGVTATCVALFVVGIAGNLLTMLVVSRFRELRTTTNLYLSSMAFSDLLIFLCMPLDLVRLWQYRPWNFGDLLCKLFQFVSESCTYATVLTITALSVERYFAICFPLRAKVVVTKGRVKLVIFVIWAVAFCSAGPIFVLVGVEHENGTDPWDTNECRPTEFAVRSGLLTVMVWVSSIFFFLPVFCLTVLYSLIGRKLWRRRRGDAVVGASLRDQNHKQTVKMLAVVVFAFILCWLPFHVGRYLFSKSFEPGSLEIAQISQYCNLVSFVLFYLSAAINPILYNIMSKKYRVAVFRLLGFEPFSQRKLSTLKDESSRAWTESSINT

T1 sequence (O43193 whole entry): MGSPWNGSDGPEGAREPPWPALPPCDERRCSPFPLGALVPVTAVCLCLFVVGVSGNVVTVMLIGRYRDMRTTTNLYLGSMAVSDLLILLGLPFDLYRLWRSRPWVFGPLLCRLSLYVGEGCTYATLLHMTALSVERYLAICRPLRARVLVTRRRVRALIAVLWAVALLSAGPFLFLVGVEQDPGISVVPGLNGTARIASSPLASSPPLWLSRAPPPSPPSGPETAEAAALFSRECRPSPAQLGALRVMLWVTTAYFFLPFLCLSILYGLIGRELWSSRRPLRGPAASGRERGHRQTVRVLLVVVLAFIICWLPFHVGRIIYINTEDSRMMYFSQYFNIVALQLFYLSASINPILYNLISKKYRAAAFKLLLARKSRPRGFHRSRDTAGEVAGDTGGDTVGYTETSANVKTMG

CC[C@H]1OC(=O)[C@H](C)[C@@H](O[C@H]2C[C@@](C)(OC)[C@@H](O)[C@H](C)O2)[C@H](C)[C@@H](O[C@@H]2O[C@H](C)C[C@H](N(C)C(C)C)[C@H]2O)[C@]2(C)CC(C)=C(O2)[C@H](C)C(=O)[C@]1(C)OC
IC50 (Motilin receptor [1]): 3.98 nM

CCNC(=O)[C@H](Cc1ccc(O)c(C(C)(C)C)c1)C(N)C(=O)[C@H](C(C)C)N(C)C(=O)[C@H](Cc1ccc(F)cc1)NC (some centres undefined)
Ki (Motilin receptor [2]): 2.63 nM

C[C@@H]1CN(Cc2ccc(-c3cccnc3C(=O)N3CCC(Nc4ccc(F)cc4)CC3)cc2)C[C@H](C)N1
IC50 (Motilin receptor [1]): 3.98 nM

COc1cccc(CCN(Cc2ccccc2-c2ccc(CN3C[C@@H](C)N[C@@H](C)C3)cc2)C(=O)NC2CCCCC2)c1
EC50 [3]: 126 nM
